In PMC7432094, “Flexible NAD^+ Binding in Deoxyhypusine Synthase Reflects the Dynamic Hypusine Modification of Translation Factor IF5A” (International Journal of Molecular Sciences, 2020):

Biological target: T1, PhoDHS (deoxyhypusine synthase from Pyrococcus horikoshii OT3) (Pyrococcus horikoshii, UniProt O50105)
T1 construct: gene dys; full length 1-342, 39 kDa; N-terminal His6 tag with TEV site, tag cleaved; expressed in E. coli B834 (DE3) pRARE2; homotetramer about 130 kDa
Experiment: X-ray crystal structure ([…] Å); UV absorbance of NAD+ bound in solution
Type: binding
Conditions: NAD+ co-purified from E. coli, none added for the crystal; crystals at pH 4.8, 20 °C; UV at pH 8.0; site at the molA/molD interface

T1 sequence (O50105 whole entry): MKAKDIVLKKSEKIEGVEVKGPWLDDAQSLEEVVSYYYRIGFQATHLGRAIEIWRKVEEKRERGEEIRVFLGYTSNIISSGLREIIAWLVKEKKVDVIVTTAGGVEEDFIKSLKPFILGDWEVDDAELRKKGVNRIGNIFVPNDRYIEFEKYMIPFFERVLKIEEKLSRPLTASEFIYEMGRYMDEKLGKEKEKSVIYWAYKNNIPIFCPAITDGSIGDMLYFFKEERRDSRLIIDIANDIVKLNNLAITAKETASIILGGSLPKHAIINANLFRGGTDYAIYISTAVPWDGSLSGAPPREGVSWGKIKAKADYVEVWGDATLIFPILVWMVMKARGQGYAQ

NC(=O)c1ccc[n+]([C@@H]2O[C@H](COP(=O)(O)OP(=O)(O)OC[C@H]3O[C@@H](n4cnc5c(N)ncnc54)[C@H](O)[C@@H]3O)[C@@H](O)[C@H]2O)c1 [NAD^+]
X-ray crystal structure (2.2 Å); UV absorbance of NAD+ bound in solution: Two bulky electron density blocks shaped as NAD^+ were distinguished at the interface between molA
